This assay concerns the target human PAD4 (hPAD4) (Homo sapiens, UniProt Q9UM07). As to the kind of experiment: RFMS human PAD4 functional assay (rapid-fire mass spectrum). The class given is biochemical. The following applies: 5 nM hPAD4 enzyme, 250 μM BAEE, 50 μM Calcium; 30 min preincubation, 90 min reaction at 37° C. As for the experimental part:
Compounds of the present invention were assayed as inhibitors of PAD4 using the assay protocol described below.
RFMS tinman PAD4 Functional Assay:
Compounds were solubilized in 100% DMSO to achieve a 10 mM compound concentration. Compound stock solutions were stored at RT. A series of dilutions were prepared in DMSO and mixed 8 times with 20 μl, mixing volume. Final top concentration of compound in the assay is 50 μM. […] 1-90 min enzyme/substrate reaction, 30 min reaction with phenyl glyoxal at 37° C. • Stop solution: 40 μl 5% TCA in ACN
0.13 μL of compound solution was added to 13 μL of 10 nM PAD4 in assay buffer. After 30 min 13 μl of 500 μM of BAEE was added in 25 mM hepes, pH 7.5, 5 mM NaCl, 1 mM DTT, 0.2 mg/ml BS A, 0.01% CHAPS, 50 μM Calcium, 5 μM TPEN was added and the reaction incubated for 90 min at 37° C. The enzymatic reaction was quenched by addition of 15 μl of 6.1N TCA, 100% Final Concentration is 20%, 35 μl of 8.5 mM phenyl glyoxal (final concentration 4 mM) is then added and the reaction is incubated for 30 min at 37° C.
After 30 minutes the plates are spun down to remove all precipitate. The enzyme reaction was quenched with an equal volume of methanol containing internal standard (modified citrulline). Samples were loaded onto the Rapid Fire RF300 system (Agilent) wherein they were first sipped for 1000 ms and then directly loaded to a C18 separations cartridge using a mixture of acetonitrile containing 0.01% formic acid for 3000 ms desalting. The flow rate of the mobile phase was 1.5 ml/min.
The dwell time for each transition was set at 200 ms, and the ESI voltage was used at 5500 with a source temperature of 400° C. Extracted ion peaks for each transition were integrated using the Rapid Fire Integrator software. Peak area of analyte was normalized with internal standard).

Data on 18 compounds can be found in patent US12692254B2, “Benzimidazole inhibitors of PAD enzymes” (BRISTOL-MYERS SQUIBB COMPANY, priority 2018, dated 2026).

As usually defined, the pIC50 is the negative decadic logarithm of the IC50, by convention in mol/L.

SMILES strings stand for the structures. pIC50: −log10 of the molar value.

Sequence of human PAD4 (hPAD4) (Q9UM07 whole entry): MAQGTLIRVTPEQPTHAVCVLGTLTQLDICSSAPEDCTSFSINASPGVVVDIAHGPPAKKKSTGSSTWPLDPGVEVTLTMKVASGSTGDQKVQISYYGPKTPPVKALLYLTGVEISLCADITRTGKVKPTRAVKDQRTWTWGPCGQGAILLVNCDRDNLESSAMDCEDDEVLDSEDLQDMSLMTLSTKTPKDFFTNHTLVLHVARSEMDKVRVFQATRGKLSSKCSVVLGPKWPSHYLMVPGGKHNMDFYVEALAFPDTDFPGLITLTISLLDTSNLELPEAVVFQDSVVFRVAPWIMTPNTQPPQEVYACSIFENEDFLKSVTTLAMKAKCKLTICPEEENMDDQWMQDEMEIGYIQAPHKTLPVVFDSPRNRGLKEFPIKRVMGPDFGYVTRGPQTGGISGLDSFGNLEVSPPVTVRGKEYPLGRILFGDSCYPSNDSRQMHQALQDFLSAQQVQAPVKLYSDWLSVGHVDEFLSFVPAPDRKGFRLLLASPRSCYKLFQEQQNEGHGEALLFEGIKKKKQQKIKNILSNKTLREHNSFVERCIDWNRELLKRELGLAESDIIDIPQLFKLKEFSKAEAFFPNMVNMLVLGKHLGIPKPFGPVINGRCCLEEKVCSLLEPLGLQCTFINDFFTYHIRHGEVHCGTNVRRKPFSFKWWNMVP

For the compound `COc1cc(C(=O)N2C[C@H](N)C[C@@H](F)C2)cc2nc(-c3cc4ccccc4n3CC3CC3)n(Cc3cccs3)c12` [Example 255, (3R,5R)-1-{2-[1-(cyclopropylmethyl)-1H-indol-2-yl]-7-methoxy-1-[(thiophen-2-yl)methyl]-1H-1,3-benzodiazole-5-carbonyl}-5-fluoropiperidin-3-amine], the pIC50 was 7.43. As to `COc1cc(C(=O)N2CC3CCC2[C@@H]3N)cc2nc(-c3cc4cccnc4n3CC3CC3)n([C@H]3C[C@@H](NC(C)=O)C3)c12` (stereo partly drawn) [Example 304, N-[(1s,3s)-3-{5-[(1R,4R,7R)-7-ammo-2-azabicyclo[2.2.1]heptane-2-carbonyl]-2-[1-(cyclopropylmethyl)-1H-pyrrolo[2,3-b]pyridin-2-yl]-7-methoxy-1H-1,3-benzodiazol-1-yl}cyclobutyl]acetamide], the pIC50 is 5.54. Next, `COc1cc(C(=O)N2C[C@H]3CC[C@@H]2[C@@H]3N)cc2nc(-c3cc4cccnc4n3CC3CC3)n(CC3CN(C(=O)C4CCCC4)C3)c12` [Example 113, (1R,4R,7R)-2-{1-[(1-cyclopentanecarbonylazetidin-3-yl)methyl]-2-[1-(cyclopropylmethyl)-1H-pyrrolo[2,3-b]pyridin-2-yl]-7-methoxy-1H-1,3-benzodiazole-5-carbonyl]-2-azabicyclo[2.2.1]heptan-7-amine]: 7.28. Turning to `COc1cc(C(=O)N2CC3CCC2[C@@H]3N)cc2nc(-c3cc4ccccc4n3CC3CC3)n(Cc3nc[nH]n3)c12` (stereo partly drawn) [Example 510, (7R)-2-{2-[1-(cyclopropylmethyl)-1H-indol-2-yl]-7-methoxy-1-[(1H-1,2,4-triazol-3-yl)methyl]-1H-1,3-benzodiazole-5-carbonyl}-2-azabicyclo[2.2.1]heptan-7-amine], the pIC50 is 6.49. Take `COc1cc(C(=O)N2C[C@H]3CC[C@@H]2[C@@H]3N)cc2nc(-c3cc4cccnc4n3CC3CC3)n(CC3CN(S(=O)(=O)C(F)(F)F)C3)c12` [Example 325, (1R,4R,7R)-2-{2-[1-(cyclopropylmethyl)-1H-pyrrolo[2,3-b]pyridin-2-yl]-7-methoxy-1-[(1-trifluoromethanesulfonylazetidin-3-yl)methyl]-1H-1,3-benzodiazole-5-carbonyl}-2-azabicyclo[2.2.1]heptan-7-amine]: the pIC50 is 6.79. For `COc1cc(C(=O)N2CC3CCC2[C@@H]3N)cc2nc(-c3cc4ccccc4n3CC3CC3)n(Cc3cnn(-c4ccc(C)cn4)c3)c12` (stereo partly drawn) [Example 404, (7R)-2-{2-[1-(cyclopropylmethyl)-1H-indol-2-yl]-7-methoxy-1-{[1-(5-methylpyridin-2-yl)-1H-pyrazol-4-yl]methyl)-1H-1,3-benzodiazole-5-carbonyl}-2-azabicyclo[2.2.1]heptan-7-amine], the pIC50 was 7.18. With `COc1cc(C(=O)N2C[C@H]3CC[C@@H]2[C@@H]3N)cc2nc(-c3cc4cccnc4n3CC3CC3)n(CC3CNC3)c12` [Example 306, (1R,4R,7R)-2-{1-[(azetidin-3-yl)methyl]-2-[1-(cyclopropylmethyl)-1H-pyrrolo[2,3-b]pyridin-2-yl]-7-methoxy-1H-1,3-benzodiazole-5-carbonyl}-2-azabicyclo[2.2.1]heptan-7-amine] the figure was 6.61; with `COc1cc(C(=O)N2C[C@H](N)C[C@@H](F)C2)cc2nc(-c3cc4cccnc4n3CC3CC3)n(Cc3cc(C)nn3C)c12` [Example 515, (3R,5R)-1-{2-[1-(cyclopropylmethyl)-1H-pyrrolo[2,3-b]pyridin-2-yl]-1-[(1,3-dimethyl-1H-pyrazol-5-yl)methyl]-7-methoxy-1H-1,3-benzodiazole-5-carbonyl}-5-fluoropiperidin-3-amine], 6.30. With `COc1cc(C(=O)N2C[C@H]3CC[C@@H]2[C@@H]3N)cc2nc(-c3cc4cccnc4n3CC3CC3)n(CC3CN(c4nnc(C)o4)C3)c12` [Example 56, (1R,4R,7R)-2-{2-[1-(cyclopropylmethyl)-1H-pyrrolo[2,3-b]pyridin-2-yl]-7-methoxy-1-{[1-(5-methyl-1,3,4-oxadiazol-2-yl)azetidin-3-yl]methyl}-1H-1,3-benzodiazole-5-carbonyl}-2-azabicyclo[2.2.1]heptan-7-amine] the figure was 6.78. Next, `COc1cc(C(=O)N2C[C@H]3CC[C@@H]2[C@@H]3N)cc2nc(-c3cc4cccnc4n3CC3CC3)n(C3CCN(C(=O)c4ccnc(C#N)c4)CC3)c12` [Example 240, 4-(4-{5-[(1R,4R,7R)-7-amino-2-azabicyclo[2.2.1]heptane-2-carbonyl]-2-[1-(cyclopropylmethyl)-1H-pyrrolo[2,3-b]pyridin-2-yl]-7-methoxy-1H-1,3-benzodiazol-1-yl}piperidine-1-carbonyl)pyridine-2-carbonitrile]: 5.84; `COc1cc(C(=O)N2CC3CCC2[C@@H]3N)cc2nc(-c3cc4cccnc4n3CC3CC3)n(CC3CN(C(=O)[C@H]4C[C@@H]4c4ccccc4)C3)c12` (stereo partly drawn) [Example 103, (1R,4R,7R)-2-{2-[1-(cyclopropylmethyl)-1H-pyrrolo[2,3-b]pyridin-2-yl]-7-methoxy-1-({1-[(1S,2S)-2-phenylcyclopropanecarbonyl]aze-tidin-3-yl}-methyl)-1H-1,3-benzodiazole-5-carbonyl}-2-azabicyclo[2.2.1]heptan-7-amine]: 7.85; `COc1cc(C(=O)N2CC3CCC2[C@@H]3N)cc2nc(-c3cc4ccccc4n3CC3CC3)n(Cc3cnn(-c4cncc(F)c4)c3)c12` (stereo partly drawn) [Example 359, (7R)-2-{2-[1-(cyclopropylmethyl)-1H-indol-2-yl]-1-{[1-(5-fluoropyridin-3-yl)-1H-pyrazol-4-yl]methyl}-7-methoxy-1H-1,3-benzodiazole-5-carbonyl}-2-azabicyclo[2.2.1]heptan-7-amine]: 7.64. With `COc1cccc(-n2cc(Cn3c(-c4cc5cccnc5n4CC4CC4)nc4cc(C(=O)N5CC6CCC5[C@@H]6N)cc(OC)c43)cn2)n1` (stereo partly drawn) [Example 365, (7R)-2-{2-[1-(cyclopropylmethyl)-1H-pyrrolo[2,3-b]pyridin-2-yl]-7-methoxy-1-{[1-(6-methoxypyridin-2-yl)-1H-pyrazol-4-yl]methyl}-1H-1,3-benzodiazole-5-carbonyl}-2-azabicyclo[2.2.1]heptan-7-amine], the pIC50 is 7.57.

As for `COc1cc(C(=O)N2C[C@H]3CC[C@@H]2[C@@H]3N)cc2nc(-c3cc4cccnc4n3CC3CC3)n(CC3CN(c4cncnc4C#N)C3)c12` [Example 52, 5-[3-({5-[(1R,4R,7R)-7-amino-2-azabicyclo[2.2.1]heptane-2-carbonyl]-2-[1-(cyclopropylmethyl)-1H-pyrrolo[2,3-b]pyridin-2-yl]-7-methoxy-1H-1,3-benzodiazol-1-yl}methyl)azetidin-1-yl]pyrimidine-4-carbonitrile], the pIC50 is 6.81. With `COc1cc(C(=O)N2CC3CCC2[C@@H]3N)cc2nc(-c3cc4cccnc4n3CC3CC3)n(Cc3cnn(CC#N)c3)c12` (stereo partly drawn) [Example 390, 2-[4-({5-[(7R)-7-amino-2-azabicyclo[2.2.1]heptane-2-carbonyl]-2-[1-(cyclopropylmethyl)-1H-pyrrolo[2,3-b]pyridin-2-yl]-7-methoxy-1H-1,3-benzodiazol-1-yl}methyl)-1H-pyrazol-1-yl]acetonitrile] the figure was 7.35; with `COc1cc(C(=O)N2CC3CCC2[C@@H]3N)cc2nc(-c3cc4cccnc4n3CC3CC3)n(Cc3cnn(-c4ncccn4)c3)c12` (stereo partly drawn) [Example 398, (7R)-2-{2-[1-(cyclopropylmethyl)-1H-pyrrolo[2,3-b]pyridin-2-yl]-7-methoxy-1-{[1-(pyrimidin-2-yl)-1H-pyrazol-4-yl]methyl}-1H-1,3-benzodiazole-5-carbonyl}-2-azabicyclo[2.2.1]heptan-7-amine], 7.27. Turning to `COc1cc(C(=O)N2C[C@H]3CC[C@@H]2[C@@H]3N)cc2nc(-c3cc4ccccc4n3CC3CC3)n(CC3CN(c4ccnc(C#N)n4)C3)c12` [Example 1, 4-(3-((5-((1R,4R,7R)-7-amino-2-azabicyclo[2.2.1]heptane-2-carbonyl)-2-(1-(cyclopropylmethyl)-1H-indol-2-yl)-7-methoxy-1H-benzo[d]imidazol-1-yl)methyl)azetidin-1-yl)pyrimidine-2-carbonitrile], the pIC50 is 7.85. Next, `COc1cc(C(=O)N2C[C@H]3CC[C@@H]2[C@@H]3N)cc2nc(-c3cc4cccnc4n3CC3CC3)n(C3CN(S(=O)(=O)c4ccccc4)C3)c12` [Example 329, (1R,4R,7R)-2-{1-[1-(benzenesulfonyl)azetidin-3-yl]-2-[1-(cyclopropylmethyl)-1H-pyrrolo[2,3-b]pyridin-2-yl]-7-methoxy-1H-1,3-benzodiazole-5-carbonyl}-2-azabicyclo[2.2.1]heptan-7-amine]: 6.79.
